Source: patent US8318761B2, “Substituted arylsulfonamides as antiviral agents” (Aicuris GmbH & Co. KG, priority 2006, dated 2012)

Legend:
[1] = Pharmacokinetical investigations after intravenous or oral administration; assay type: in vivo; details: male Wistar rat
Procedure: Pharmacokinetical Investigations
The pharmacokinetics of the active substances are investigated after intravenous or oral administration of doses in the range from 1 mg/kg intravenously and 3 mg/kg orally to three male Wistar rats per administration route. In order to make a repeated removal of blood possible a catheter is implanted into the jugular vein of the animals on the day before the experiment. The substances are administered intravenously as well as orally as a solution. Thereby, in most cases a plasma formulation (rat plasma with 1-2% ethanol or DMSO, 2 ml/kg) is used for the intravenous administration and a PEG formulation (10% ethanol, 40% PEG 400, 50% water, 5 ml/kg) is used for the oral administration.
After the administration of the active substance blood samples are collected over 24 h via the catheter into heparin-containing sample tubes. Subsequently to the removal of blood the blood samples are centrifuged and the plasma supernatant is pipetted into Eppendorf tubes. The plasma samples are stored at least −15° C. until the analysis takes place.
For the work-up the samples are thawed. The plasma proteins are subsequently precipitated by the addition of acetonitrile which comprises an internal standard. As internal standard a substance from the same structural class is selected which is structurally as similar as possible to the active compound. For the preparation of calibration samples different concentrations of the active substance are added to aliquots of empty plasma and these are worked up together with the unknown samples. Additionally quality control samples with three different concentrations are prepared which serve to validate the analytical procedure.
The determination of the active substance in the samples takes place by high performance liquid chromatography with mass spectrometrical detection (LC/MS-MS). The active substance concentrations in the unknown samples are determined based on their relative peak heights or areas compared to the calibration curve using the program Concalc for Windows (CCW, Integrierte Labordatensysteme, version 2.5 or later, Bayer AG). Subsequently, the pharmacokinetical parameters are calculated from the plasma concentration development over time individualized to an animal using non-compartimental analysis with the aid of the program KINCALC, version 2.50.02 (Bayer AG, 2001).
The following data can be acquired from these tests:
AUC=total area under the drug-concentration over time curve;
Cmax=maximum concentration;

[2] = Anti-HCMV cytopathogenicity test, cytostatic effect on uninfected cells; assay type: cell-based; details: human, NHDF cells (human prepuce fibroblasts), 6 days incubation, visual assessment
Procedure: (§1) Anti-HCMV (Anti-Human Cytomegalovirus) Cytopathogenicity Tests The test compounds are employed as 50 millimolar (mM) solutions in dimethyl sulfoxide (DMSO). Ganciclovir® serves as reference compound. After the addition of 2 μl of the 50, 5, 0.5 and 0.05 mM DMSO stock solutions respectively to 98 μl portions of cell culture medium in row […] for duplicate determinations, 1:2 dilutions are carried out with 50 μl portions of medium up to row 11 of the 96-well plate. The wells in rows 1 and 12 each contain 50 μl of medium. 150 μl of a suspension of 1×10^4 cells (human prepuce fibroblasts [NHDF]) are then pipetted into each of the wells (row 1=cell control) and, in rows 2-12, a mixture of HCMV-infected and uninfected NHDF cells (M.O.I.=0.001-0.003), i.e. 1-3 infected cells per 1000 uninfected cells. Row 12 (without substance) serves as virus control. The final test concentrations are […]. The plates are incubated at 37° C./5% CO2 for 6 days, i.e. until all the cells in the virus controls are infected (100% cytopathogenic effect [CPE]). The wells are then fixed and stained by the addition of a mixture of formalin and Giemsa's dye (30 min), washed with bidistilled water and dried in a drying oven at 50° C. The plates are then assessed visually using an overhead microscope (plaque multiplier from Technomara). The following data can be obtained from the test plates: CC50 (NHDF)=substance concentration in MM at which no visible cytostatic effects on the cells are evident in comparison with the untreated cell control;

HCMV = experiment: Anti-HCMV cytopathogenicity test (CPE inhibition); assay type: cell-based, human cytomegalovirus; details: for EC50: Human betaherpesvirus 5, 144 h, HCMV-infected NHDF cells, M.O.I. 0.001-0.003, 6 days, inhibition of CPE by 50%; for SI HCMV: selectivity index = CC50 (NHDF)/EC50 (HCMV)
Procedure: as §1, with “plates: EC50 (HCMV)=substance” for “plates: CC50 (NHDF)=substance”, “MM” for “MM at”, “which inhibits” for “which no visible cytostatic effects on”, “the CPE (cytopathic effect) by 50%” for “the cells are evident”, “untreated virus” for “untreated cell”, “control; SI (selectivity index)=CC50 (NHDF)/EC50 (HCMV).” for “control;”

[3] = 3 mg/kg p.o., solution in 10% ethanol, 40% PEG 400, 50% water, 5 ml/kg

Row | Structure (SMILES) | half-life ([1]; iv, 1.3 mg/kg i.v., solution in rat plasma with 1% DMSO, 2 ml/kg) | clearance ([1]; iv, 1.3 mg/kg i.v., solution in rat plasma with 1% DMSO, 2 ml/kg, read-out: CLPlasma (converted)) | Vd ([1]; iv, 1.3 mg/kg i.v., solution in rat plasma with 1% DMSO, 2 ml/kg, read-out: Vss) | CLBlood ([1]; 1.3 mg/kg i.v., solution in rat plasma with 1% DMSO, 2 ml/kg) | AUCnorm, p.o. [1, 3] | Cmax, norm, p.o. [1, 3] | bioavailability ([1]; plasma, po, 3 mg/kg p.o., solution in 10% ethanol, 40% PEG 400, 50% water, 5 ml/kg, read-out: F (bioavailability)) | CC50 at 6 days [2] | EC50 (HCMV) | SI HCMV (HCMV)
1 | N#CC1(C(=O)Nc2cc(F)cc(NS(=O)(=O)c3ccc(-c4noc(-c5cccc(N)n5)n4)cc3)c2)CC1 [Example 1, N-{3-[({4-[5-(6-Aminopyridin-2-yl)-1,2,4-oxadiazol-3-yl]phenyl}sulfonyl)amino]-5-fluorophenyl}-1-cyanocyclopropanecarboxamide] | 4.26 h | 1.07 mL/min/kg | 0.321 L/kg | 2.13 mL/min/kg | 8.58 kg·h/L | 1.08 kg/L | 55.3% | 71 µM | 0.011 µM | 6450
2 | N#CC1(C(=O)Nc2cccc(NS(=O)(=O)c3ccc(-c4noc(-c5cccc(N)n5)n4)cc3)c2)CC1 [Example 2, N-{3-[({4-[5-(6-Aminopyridin-2-yl)-1,2,4-oxadiazol-3-yl]phenyl}sulfonyl)amino]phenyl}-1-cyanocyclopropanecarboxamide] | – | – | – | – | – | – | – | 141 µM | 0.007 µM | 20140
3 | Cc1c(NC(=O)C2(C#N)CC2)cccc1NS(=O)(=O)c1ccc(-c2noc(-c3cccc(N)n3)n2)cc1 [Example 3, N-{3-[({4-[5-(6-Aminopyridin-2-yl)-1,2,4-oxadiazol-3-yl]phenyl}sulfonyl)amino]-2-methylphenyl}-1-cyanocyclopropanecarboxamide] | – | – | – | – | – | – | – | 102 µM | 0.002 µM | 51000
4 | Cl.N#CC1(C(=O)Nc2cccc(NS(=O)(=O)c3ccc(C#Cc4cccc(N)n4)cc3)c2)CC1 [Example 4, N-{3-[({4-[(6-Aminopyridin-2-yl)ethynyl]phenyl}sulfonyl)amino]phenyl}-1-cyanocyclopropanecarboxamide Hydrochloride] | – | – | – | – | – | – | – | 47 µM | 0.021 µM | 2240
5 | CC(=O)Nc1cccc(-c2nc(-c3ccc(S(=O)(=O)Nc4cc(F)cc(NC(=O)C5(C#N)CC5)c4)cc3)no2)n1 [Example 5, N-{3-[({4-[5-(6-Acetylaminopyridin-2-yl)-1,2,4-oxadiazol-3-yl]phenyl}sulfonyl)amino]-5-fluorophenyl}-1-cyanocyclopropanecarboxamide] | – | – | – | – | – | – | – | 71 µM | 0.026 µM | 2730
